Reference: patent US11779548B2, “Arylfluorosulfate compounds and methods” (THE SCRIPPS RESEARCH INSTITUTE, priority 2014, dated 2023)

Columns and labels:
A549 cells [1] = test: Cancer cell growth inhibition assay; format: cell-based; details: Homo sapiens, A549, read-out: IC50 A549 Cells
Protocol: (§1) Experimental compounds were dissolved in DMSO at 500-fold of the desired final maximum test concentration. Then it was 10-fold serially diluted to other concentrations in DMSO. All aliquots were frozen prior to use.
(§2) Another same plate of cells was inoculated for the evaluation of time 0. […] And another plate of cancer cells was refreshed with medium containing either DMSO (0.2%, as control) or test compounds (1 or 1F) in seven different concentrations from 20 μM. After incubation for 72 hours, cell viabilities were evaluated by CellTiter-Glo™ assay to obtain Vcontrol and Vtest. The growth inhibition percentage is defined as (Vtest−V0)/(Vcontrol−V0)×100%. IC50 values were obtained from dose-response curves. All tests included 3 repeats.
(§3) Cancer cells were inoculated into a 96-well plate in 100 μL medium at a plating density of 3,000 cells/well. […] Then cells were incubated for 6 days with one change of medium containing test compounds on day 3, before cell viabilities were evaluated by CellTiter-Glo™ Assay to obtain Vcontrol and Vtest. […]
(§4) Another same plate of cells was inoculated for the evaluation of time 0. […] Then the viabilities of cancer cells for time 0 were evaluated by CellTiter-Glo™ assay to obtain V0. […] Then cells were incubation for 72 hours, before cell viabilities were evaluated by CellTiter-Glo™ assay to obtain Vcontrol and Vtest. […]

MCF-7 cells [2] = test: Cancer cell growth inhibition assay; format: cell-based; details: Homo sapiens, MCF7, read-out: IC50 MCF-7 Cells
Protocol: as §1, §2, §3, §4

[3] = test system: A549, MCF-7, SKBR3 and HT-29 cells; test: Cancer cell growth inhibition assay, comparison over the cell line panel; format: cell-based; details: 20 μM and 2 μM, dose-response studies
Protocol: as §1, §2
as §2, with “Then the viabilities of cancer cells for time 0 were evaluated by CellTiter-Glo™ assay to obtain V0. Another” for “And another”, “(25” for “(1”, “25F)” for “1F)”, “7 to 9” for “seven”, “μM (2 μM for MCF-7 cells). Then cells were” for “μM. After”, “hours, before” for “hours,”

[4] = test system: microtubule network in HT-29 cells; test: Immunofluorescence microscopy of HT-29 microtubule disruption; format: cell-based; details: HT-29, 24 h, anti-tubulin-FITC, confocal imaging; 25F 1 μM and 0.1 μM
Protocol: To assess the mechanism of fluorosulfate 25F, HT-29 cells were treated with 25F followed by staining with anti-tubulin-FITC antibody. […] In fact, glucuronidation of 25 on the phenol group by uridine 5-diphosphoglucuronosyl transferases (UGTs) has been previously identified as a mechanism of resistance evolved by HT-29 colon cancer cells and hepatocellular cancer cells.
After incubation at 37° C. for 24 hours, cells were treated with media containing DMSO (0.2%), 25 (1 μM, 0.1 μM) or 25F (1 μM, 0.1 μM, 0.01 μM) for 24 hours. Then cells were gently washed in PBS, fixed for 20 min with 4% paraformaldehyde in PBS and permeabilised in 0.5% Triton X-100™ surfactant. Following washes in PBS containing 0.1% Tween™ (PBST) surfactant, cells were blocked in 5% bovine serum albumin diluted in PBST. Then cells were incubated with mouse monoclonal anti-tublin-FITC antibody (DM1A) (1:100 in PBS) for 3 hours. After washing with PBST, cells were incubated with DAPI (1:2000) for 30 min and mounted in PBS for confocal analysis. Images were captured by Nikon™ spinning disk confocal microscopy. All images in each experiment were collected on the same day using identical parameters.

A549 cells [5] = test: Two-dose cell viability assay (CellTiter-Glo); details: A549, 20 μM and 500 nM, 72 h
Protocol: (§5) The cytotoxicity of fluorosulfation products 1F to 39F and their phenol precursors was assessed in cancer cell lines using a double-dose cell viability test. […] The difference between the cytotoxicity of a fluorosulfation product and that of its phenol precursor reflects the changes in compounds' anti-cancer activity after the SuFEx-based derivatization (FIG. 3, A). […] The corresponding phosphate of combretastatin A4 is a tumor vascular targeting agent, and the water-soluble prodrug of combretastatin A4.
(§6) 6C. Two-Dose Cell Viability Assay to Compare the Cytotoxicities of Fluorosulfation Products (1F to 39F) and Phenol Parents (1 to 39).
(§7) MCF-7 and A549 cancer cells were inoculated into 96-well plates in 100 μL medium at a plating density of 5,000 cells/well. After cell inoculation, the plates were incubated at 37° C. and 5% CO2. After 24 hours, all wells were refreshed with medium containing DMSO (0.2%, as vehicle control), phenols (20 μM or 500 nM) or in situ generated fluorosulfation products (20 μM or 500 nM). Then cancer cells were maintained at 37° C. and 5% CO2 for 72 hours before cell viability (Vcontrol, Vphenol and Vfluorosulfation product) were evaluated by CellTiter-Glo™ Assay following manual of protocol. […] The cytotoxicity difference between a fluorosulfation product and its phenol precursor is quantified as (Vphenol/Vcontrol×100%)−(Vfluorosulfation product/Vcontrol×100%).

MCF-7 cells [6] = test: Two-dose cell viability assay (CellTiter-Glo); details: MCF-7, 500 nM, 72 h, in situ generated product
Protocol: as §5, §6, §7

HT-29 cells = test: Cancer cell growth inhibition assay; format: cell-based
Protocol: as §1, §2
as §2, with “Then the viabilities of cancer cells for time 0 were evaluated by CellTiter-Glo™ assay to obtain V0. Another” for “And another”, “(25” for “(1”, “25F)” for “1F)”, “7 to 9” for “seven”, “μM (2 μM for MCF-7 cells). Then cells were” for “μM. After”, “hours, before” for “hours,”

SKBR3 cells = test: Cancer cell growth inhibition assay; format: cell-based; details: Homo sapiens, SK-BR-3, 72 h, read-out: IC50 SKBR3 Cells
Protocol: as §1, §2
as §2, with “Then the viabilities of cancer cells for time 0 were evaluated by CellTiter-Glo™ assay to obtain V0. Another” for “And another”, “(25” for “(1”, “25F)” for “1F)”, “7 to 9” for “seven”, “μM (2 μM for MCF-7 cells). Then cells were” for “μM. After”, “hours, before” for “hours,”

## COc1ccc(/C=C\c2cc(OC)c(OC)c(OC)c2)cc1OS(=O)(=O)F [25F, (Z)-2-Methoxy-5-(3,4,5-trimethoxystyryl)phenyl sulfurofluoridate]
A549 cells [1]
  IC50: 113 nM
MCF-7 cells [2]
  IC50: 15.6 nM
[3]
  activity to inhibit cells at high concentrations compared with parent drug 25: stronger activities
[4]
  microtubule structure of treated cells: completely lost microtubule structure
A549 cells [5]
  cytotoxicity compared with phenol precursor: significantly stronger
MCF-7 cells [6]
  increase of cytotoxicity relative to phenol precursor: 8%
HT-29 cells; Homo sapiens, HT-29, 72 h, read-out: IC50 HT-29 Cells
  IC50: 70 nM
HT-29 cells; drug resistant colon cancer cell line HT-29
  fold lower IC50 (increase in potency) versus compound 25 on HT-29: 70 fold
SKBR3 cells
  IC50: 1.8 nM
